Data on four compounds can be found in PubChem BioAssay (NCI).

Molecules are shown by their SMILES.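 A five-concentration, 48-hour dose response in 96-well plates underlies each endpoint, interpolated linearly between surrounding concentrations. Definition used: TGI = concentration required for complete inhibition of growth.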 A value given as a limit tells only on which side of the number the result lay.

Assay in all cases: NCI-60 cell line screen, 48 h
Experiment [1] concerns EKVX NSCLC.
The subject of experiment [2] is A549 NSCLC.
For experiment [3], the system named is ACHN renal.
For experiment [4], the system named is NCI-H23 lung.
Experiment [5] has as its system T-47D breast.
Experiment [6] relates to A498 renal.
The subject of experiment [7] is RXF 393 renal.
For experiment [8], the system named is MOLT-4 leukemia.
Experiment [9] has as its system BT-549 breast.
In experiment [10] the test system is SK-OV-3 ovarian.
Experiment [11] concerns NCI-H460 lung.
The subject of experiment [12] is HCC-2998 colon.
Experiment [13] deals with TK-10 renal.
For experiment [14], the system named is NCI-H226 lung.

Turning to `Cc1cc(S(=O)(=O)Nc2nc3ccccc3nc2-c2cccc([N+](=O)[O-])c2)c(S)cc1Cl`, the TGI in experiment [1] worked out at 54.4 µM; in experiment [2], 38 µM; in experiment [3], 64.3 µM; in experiment [4], 33.7 µM; in [5], 38.9 µM; in experiment [6], 29.1 µM. Moreover, the TGI in [7] was 74.4 µM; in [8], 73.5 µM; in [9], 72.8 µM; in experiment [10], 34 µM; in experiment [11], 35.3 µM; in [12], 39.1 µM. The values for the TGI in experiment [13] and in [14] were above 100 µM and 44.5 µM, respectively.

For `CN(C)c1ccc(C(Cc2ccccc2)C2NC(=S)NC2=O)cc1` (stereo unspecified), the TGI in [1], in [2], in experiment [3], in experiment [4], in [5] and in [6] was above 100 µM throughout. The TGI in experiment [7], in [8], in experiment [9], in [10], in experiment [11] and in experiment [12] was above 100 µM each time. The TGI in experiment [13] and in [14] was above 100 µM in each case.

Consider `C=CCC1(OCc2ccccc2)C(=O)C(=O)OC1C1COC(C)(C)O1` (stereo unspecified), for which the TGI in experiment [1], in experiment [2], in experiment [3], in experiment [4], in [5] and in experiment [6] was above 100 µM each time. The TGI in experiment [7], in [8], in experiment [9], in experiment [10], in experiment [11] and in experiment [12] was above 100 µM throughout. Further, the TGI in experiment [13] and in [14] was above 100 µM each time.

For `Cc1ccc(NC(Nc2ccc(C)cc2C)=C(/C=C(\Cl)[N+](=O)[O-])[N+](=O)[O-])c(C)c1`, the TGI in experiment [1] was 32.3 µM; in experiment [2] it was 35 µM; in experiment [3], 8.26 µM; in [4], 20.8 µM; in experiment [5] it was 3.99 µM; in experiment [6], 32.4 µM. Also, the TGI was 3.75 µM in experiment [7]; 4.82 µM in experiment [8]; 11.7 µM in [9]; 21 µM in [10]; 36.7 µM in experiment [11]; 38.4 µM in [12]. Moreover, the TGI in [13] was determined as 13.2 µM; in [14], 22.1 µM.
